Results taken from US20180265423A1, “Pesticide Dispersion in Concentrated Aqueous Fertilizer Solution” (priority 2014, published 2018).
Read-outs that look alike come from different tables or passages of the source. Blank lines part the entries; values can stand above or below the compound they belong to.

Tests used:
[1] = assay type: physicochemical; settings: for crystal growth in the fertilizer solutions tested: review of table 2
Text: Crystal formation in a suspension concentrate is a complex phenomenon. It is believed that if the solubility of the suspended solid chemical is high in the medium, the suspension concentrate is prone to form crystals of the suspended solid chemical in storage. […] The concentrations of the solid pesticides used in this example were low (at a typical ready-to-apply concentration range). If a solid pesticide forms crystals in such a low concentration, it is not suitable for a ready-to-apply pesticide suspension and mostly likely will not be suitable for a more concentrated suspension in fertilizer. […] By “not suitable” is meant that although it may work to some extent, it is not a good candidate for the pesticide SC.
Samples were prepared by adding the components followed by hand-shaking.

[2] = Quick screening of crystal growth potential in fertilizer concentrates and water, solid pesticides containing a carboxylic acid group (Example 2); assay type: physicochemical; settings: for suitability for suspension in fertilizer solutions: review of table 3
Description: Samples were prepared by adding the components followed by hand-shaking. Samples were placed at 0° C. and observation was made after 1 day, unless otherwise specified.

[3] = Study of additional surfactants in 10-34-0, 27-4-0 and diluted 10-34-0 fertilizers (Example 8); assay type: physicochemical
[4] = Stability of 50% clothianidin in 50% URAN 32 fertilizer (Example 6); assay type: physicochemical; settings: 0.5 g in 100 g URAN 32 fertilizer solution
Description: 0.5 g Witcolate D-510 surfactant was added into 100 g URAN 32 fertilizer solution (50 wt % URAN 32 in water). […] Then 100 g clothianidin was added to the resulting solution and mixed well by hand-shaking. This sample was stable and had about 10% top clear with a smooth bottom suspension after 2 weeks at 40° C.
In other experiments, 0.3% of a pH adjusting agent (40 wt % Citric acid), was included in the SC sample (homogenized sample) and no noticeable effect was observed on stability. Viscosity measurements were made with a Brookfield viscometer at various speeds (rpm) at room temperature with a #64 spindle. This sample was very viscous but it was highly shear-thinning.

[5] = Storage stability of 40% clothianidin SC in 10-34-0 with wetting agent Witcolate D-510 (Example 5); assay type: physicochemical; settings: clothianidin suspension in 10-34-0
Description: The test samples were prepared by adding 60 grams of 10-34-0 fertilizer (from Plant Food) to a bottle. Then various amounts of Witcolate D-510 (2-ethylhexyl sulfate) were added to the 10-34-0 fertilizer and mixed well. Finally, 40 grams of clothianidin (technical grade) was added to the mixture and mixed well by shaking by hand.

[6] = 1 wt % powder pesticide, 98 wt % 10-34-0, 1 wt % Witcolate D-510
[7] = 1 wt % powder pesticide, 98 wt % 40% AMS, 1 wt % Witcolate D-510
[8] = 1 wt % powder pesticide, 98 wt % URAN 32, 1 wt % Witcolate D-510
[9] = 1 wt % powder pesticide, 98 wt % Water, 1 wt % Witcolate D-510
[10] = powder pesticide (glyphosate acid 2, 2,4-D acid 1.3, others 1 wt %) in 10-34-0, no wetting agent
[11] = powder pesticide (glyphosate acid 2, 2,4-D acid 1.3, others 1 wt %) in 10-34-0, no wetting agent, 0° C., 1 day unless otherwise specified
[12] = powder pesticide (glyphosate acid 2, 2,4-D acid 1.3, others 1 wt %) in 40% AMS, no wetting agent
[13] = powder pesticide (glyphosate acid 2, 2,4-D acid 1.3, others 1 wt %) in 40% AMS, no wetting agent, 0° C., 1 day unless otherwise specified
[14] = powder pesticide (glyphosate acid 2, 2,4-D acid 1.3, others 1 wt %) in URAN 32, no wetting agent, 0° C., 1 day unless otherwise specified
[15] = powder pesticide (glyphosate acid 2, 2,4-D acid 1.3, others 1 wt %) in Water, no wetting agent
[16] = powder pesticide (glyphosate acid 2, 2,4-D acid 1.3, others 1 wt %) in Water, no wetting agent, 0° C., 1 day unless otherwise specified
[17] = 1 wt % powder pesticide in 99 wt % 10-34-0, no wetting agent
[18] = 1 wt % powder pesticide in 99 wt % 40% AMS, no wetting agent
[19] = 1 wt % powder pesticide in 99 wt % URAN 32, no wetting agent
[20] = 1 wt % powder pesticide in 99 wt % Water, no wetting agent
[21] = 30 wt % powder pesticide in 70 wt % 10-34-0, no wetting agent

Compound: Cc1c(COC(=O)[C@@H]2[C@H](/C=C(\Cl)C(F)(F)F)C2(C)C)cccc1-c1ccccc1 (racemic) [Bifenthrin]
Comment: powder sank or floated [1, 6]: floated | Comment: suitability [1, 6]: Suitable | Comment: powder sank or floated [1, 7]: sank | Comment: suitability [1, 7]: Suitable | Comment: powder sank or floated [1, 8]: floated | Comment: suitability [1, 8]: Suitable | Comment: powder sank or floated [1, 9]: sank | Comment: suitability [1, 9]: Suitable | crystal growth in the fertilizer solutions tested [1]: did not have crystal growth

Compound: O=C(O)COc1ccc(Cl)cc1Cl [2,4-D acid]
Comment: suitability [2, 10]: particles. Not suitable | Comment: crystal growth or other change [2, 11]: Crystal growth between powder | Comment: dissolution [2, 11]: Not dissolved | Comment: powder sank or floated [2, 11]: Powder sank | Comment: suitability [2, 12]: particles. Not suitable | Comment: crystal growth or other change [2, 13]: Crystal growth between powder | Comment: dissolution [2, 13]: Not dissolved | Comment: powder sank or floated [2, 13]: Powder sank | Comment: suitability ([2]; powder pesticide (glyphosate acid 2, 2,4-D acid 1.3, others 1 wt %) in URAN 32, no wetting agent): particles. Not suitable | Comment: crystal growth or other change [2, 14]: Crystal growth between powder | Comment: dissolution [2, 14]: Not dissolved | Comment: powder sank or floated [2, 14]: Powder sank | Comment: suitability [2, 15]: particles. Not suitable | Comment: crystal growth or other change [2, 16]: Crystal growth between powder | Comment: dissolution [2, 16]: Not dissolved | Comment: powder sank or floated [2, 16]: Powder sank | suitability for suspension in fertilizer solutions [2]: may not be suitable

Surfactant Suitability ([3]; 27-4-0 99, surfactant 1 wt): Not suitable | suitability for the fertilizers tested ([3]; review of table 10): not suitable
Compound: CCCCC(CC)COC(=O)CC(C(=O)OCC(CC)CCCC)S(=O)(=O)O.[Na] (stereo not shown) [Aerosol AOT-75, sodium bis (2-ethyl hexyl) sulfosuccinate]

Compound: CCNc1nc(Cl)nc(NC(C)C)n1 [Atrazine]
Comment: powder sank or floated [1, 17]: floated | Comment: suitability [1, 17]: Suitable | Comment: suitability [1, 18]: Suitable | Comment: powder sank or floated [1, 19]: floated | Comment: suitability [1, 19]: Suitable | Comment: suitability [1, 20]: Suitable | Comment: powder sank or floated [1, 6]: floated | Comment: suitability [1, 6]: Suitable | Comment: powder sank or floated [1, 7]: floated | Comment: suitability [1, 7]: Suitable | Comment: powder sank or floated [1, 8]: floated | Comment: suitability [1, 8]: Suitable | Comment: powder sank or floated [1, 9]: sank | Comment: suitability [1, 9]: Suitable | crystal growth in the fertilizer solutions tested [1]: did not have crystal growth

Compound: COc1c(Cl)ccc(Cl)c1C(=O)O [Dicamba acid]
Comment: suitability [2, 10]: Not suitable | Comment: crystal growth or other change [2, 11]: Crystal formed at bottom at 0 C. | Comment: crystal growth or other change [2, 13]: Oily drop formed at bottom. | Comment: dissolution [2, 14]: Dissolved | Comment: suitability [2, 15]: Not suitable | Comment: crystal growth or other change [2, 16]: Crystal formed at 0 C. and | suitability for suspension in fertilizer solutions [2]: may not be suitable

Compound: CN(C)C(=O)Nc1ccc(Cl)c(Cl)c1 [Diuron]
Comment: powder sank or floated [1, 17]: sank and some floated. | Comment: suitability [1, 17]: Suitable | Comment: suitability [1, 18]: Suitable | Comment: powder sank or floated [1, 19]: sank | Comment: suitability [1, 19]: Suitable | Comment: suitability [1, 20]: Suitable | Comment: suitability [1, 6]: Suitable | Comment: powder sank or floated [1, 7]: sank | Comment: suitability [1, 7]: Suitable | Comment: powder sank or floated [1, 8]: sank | Comment: suitability [1, 8]: Suitable | Comment: powder sank or floated [1, 9]: sank | Comment: suitability [1, 9]: Suitable | crystal growth in the fertilizer solutions tested [1]: did not have crystal growth

Compound: O=C(O)CNCP(=O)(O)O [Glyphosate acid]
Comment: dissolution [2, 21]: Powder not dissolved. Powder | Comment: suitability [2, 21]: at room temp. Not suitable | Comment: crystal growth or other change ([2]; 30 wt % powder pesticide in 70 wt % 10-34-0, no wetting agent, at room temp): Crystal growth on container wall | Comment: dissolution [2, 11]: Dissolved at room temp | Comment: suitability [2, 12]: Not suitable | Comment: dissolution [2, 13]: Dissolved | Comment: crystal growth or other change [2, 16]: Crystal growth at room temp | Comment: dissolution [2, 16]: Not dissolved | suitability for suspension in fertilizer solutions [2]: may not be suitable

Compound: O=[N+]([O-])NC1=NCCN1Cc1ccc(Cl)nc1 [Imidaclopid]
solubility in URAN 32 [1]: high solubility | Comment: suitability [1, 17]: Suitable | Comment: suitability [1, 18]: Suitable | Comment: dissolution [1, 19]: Dissolved | Comment: suitability [1, 19]: Not suitable | Comment: suitability [1, 20]: Suitable | Comment: suitability [1, 6]: Suitable | Comment: powder sank or floated [1, 7]: sank | Comment: suitability [1, 7]: Suitable | Comment: dissolution [1, 8]: Dissolved | Comment: suitability [1, 8]: Not suitable | Comment: powder sank or floated [1, 9]: sank | Comment: suitability [1, 9]: Suitable | crystal growth in the fertilizer solutions tested [1]: did not have crystal growth

Compound: CCCCC(C#N)(Cn1cncn1)c1ccc(Cl)cc1 (stereo not shown) [Myclobutanil]
Comment: powder sank or floated [1, 17]: floated | Comment: suitability [1, 17]: Suitable | Comment: powder sank or floated [1, 18]: sank | Comment: suitability [1, 18]: Suitable | Comment: powder sank or floated [1, 19]: floated | Comment: suitability [1, 19]: Suitable | Comment: powder sank or floated [1, 20]: sank | Comment: suitability [1, 20]: Suitable | Comment: powder sank or floated [1, 6]: floated | Comment: suitability [1, 6]: Suitable | Comment: powder sank or floated [1, 7]: floated | Comment: suitability [1, 7]: Suitable | Comment: powder sank or floated [1, 8]: floated | Comment: suitability [1, 8]: Suitable | Comment: powder sank or floated [1, 9]: sank | Comment: suitability [1, 9]: Suitable | crystal growth in the fertilizer solutions tested [1]: did not have crystal growth

Appearance ([3]; 27-4-0 99.4, surfactant 0.6 wt): Clear
Compound: CCCCCCCCCCCC(=O)OCCOCCOCCOCCOCCOCCOCCOCCOCCOCCOCCOCCOCCOCCOCCOCCOCCOCCOCCOCCOCC(OCCOCCOCCOCCOCCOCCOCCOCCOCCOCCOCCOCCOCCOCCOCCOCCOCCOCCOCCOCCO)C1OCC(OCCOCCOCCOCCOCCOCCOCCOCCOCCOCCOCCOCCOCCOCCOCCOCCOCCOCCOCCOCCO)C1OCCOCCOCCOCCOCCOCCOCCOCCOCCOCCOCCOCCOCCOCCOCCOCCOCCOCCOCCOCCO (stereo not shown) [Tween 20, Polysorbate-20]

Appearance ([3]; 27-4-0 76.6, surfactant 23.4 wt): Clear | dissolution of surfactant in URAN 32 [4]: dissolved in URAN 32 readily
Compound: CCCCC(CC)COS(=O)(=O)[O-].[Na+] (stereo not shown) [Witcolate D510, 2-ethylhexyl sulfate]

surfactant in place of Witcolate D-510 to produce similar clothianidin suspensions [5]: suitable
Compound: C4-C6 phosphate ester with less than 7EO units (acid form)

Appearance ([3]; 27-4-0 89.4, surfactant 10.6 wt): Clear
Compound: C810-3EO sulfate [C810-3EO sulfate (40%)]

Appearance ([3]; 10-34-0 56.1, Water 30.7, surfactant 13.2 wt): Clear | Appearance ([3]; 27-4-0 81.2, surfactant 18.8 wt): Clear
Compound: Sodium C810 sulfate [Sodium C810 sulfate (40%)]

Appearance ([3]; 27-4-0 91.3, surfactant 8.7 wt): Clear
Compound: Sodium Laureth-2 sulfate [Witconate ES-2]
